Where “and” joins values, the source holds several entries; their conditions need not be identical. Equal values may be shown once. Toxic doses and inconclusive results are not listed.
Test system: BDF1 mice, P388 leukemia ip, median survival T/C
Assay: NCI In Vivo Anticancer Drug Screen. Data for tumor model P388 Leukemia (intraperitoneal) in B6D2F1 (BDF1) mice
Conditions: endpoint: median survival time, higher = longer survival
How it was run: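 T/C = treated-group survival ÷ vehicle-control survival; tumour transplanted into mice before dosing.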

[1] = dose: 5.0 mg/kg/injection, schedule: Q01DX010 (ip), vehicle: carboxymethylcellulose (CMC)
[2] = dose: 10.0 mg/kg/injection, schedule: Q01DX010 (ip), vehicle: carboxymethylcellulose (CMC)
[3] = dose: 20.0 mg/kg/injection, schedule: Q01DX010 (ip), vehicle: carboxymethylcellulose (CMC)

In the case of `Nc1ncc(C2OC(CO)C(O)C2O)c(=O)[nH]1` (centres undefined), the T/C (dose: 16.0 mg/kg/injection, schedule: Q01DX005 (ip), vehicle: saline) is reported as 123 % of control and the T/C (dose: 128.0 mg/kg/injection, schedule: Q01DX005 (ip), vehicle: saline) is reported as 150 % of control.
For `CC(C)C1=CC2=C[C@H](O)[C@H]3C(C)(C)CCC[C@]3(C)C2=C(O)C1=O`, the T/C (dose: 2.0 mg/kg/injection, schedule: Q01DX010 (ip), vehicle: carboxymethylcellulose (CMC)) was 100 % of control, the T/C (dose: 2.2 mg/kg/injection, schedule: Q01DX010 (ip), vehicle: carboxymethylcellulose (CMC)) was 112 % of control and the T/C (dose: 3.3 mg/kg/injection, schedule: Q01DX010 (ip), vehicle: carboxymethylcellulose (CMC)) was 116 % of control. The T/C [1] was 120 % of control, the T/C [2] was 100 % of control and the T/C (dose: 10.0 mg/kg/injection, schedule: Q01DX010 (ip), vehicle: other) was 115 % of control. For the same compound, the T/C [3] was 110 % of control.
For `COc1ccc(C(N)C(=O)O)cc1` (centres undefined), the T/C (dose: 100.0 mg/kg/injection, schedule: Q01DX001 (ip), vehicle: Klucel (hydroxypropylcellulose) (HPC)) was 100 % of control, the T/C (dose: 200.0 mg/kg/injection, schedule: Q01DX001 (ip), vehicle: Klucel (hydroxypropylcellulose) (HPC)) was 109 % of control and the T/C (dose: 400.0 mg/kg/injection, schedule: Q01DX001 (ip), vehicle: Klucel (hydroxypropylcellulose) (HPC)) was 109 % of control.
In the case of `BrC(Br)c1ccc2ccccc2n1`, the T/C (dose: 100.0 mg/kg/injection, schedule: Q01DX009 (ip), vehicle: Klucel (hydroxypropylcellulose) (HPC)) is reported as 108 % of control, the T/C (dose: 100.0 mg/kg/injection, schedule: Q04DX003 (ip), vehicle: Klucel (hydroxypropylcellulose) (HPC)) is reported as 100 % of control and the T/C (dose: 200.0 mg/kg/injection, schedule: Q01DX009 (ip), vehicle: Klucel (hydroxypropylcellulose) (HPC)) is reported as 108 % of control. The T/C (dose: 200.0 mg/kg/injection, schedule: Q04DX003 (ip), vehicle: Klucel (hydroxypropylcellulose) (HPC)) was 91 % of control, the T/C (dose: 400.0 mg/kg/injection, schedule: Q01DX009 (ip), vehicle: Klucel (hydroxypropylcellulose) (HPC)) was 95 % of control and the T/C (dose: 400.0 mg/kg/injection, schedule: Q04DX003 (ip), vehicle: Klucel (hydroxypropylcellulose) (HPC)) was 91 % of control.
In the case of `C[N+]1=C2CCCCC2=C(N)CC1`, the T/C (dose: 6.25 mg/kg/injection, schedule: Q01DX009 (ip), vehicle: saline) is reported as 110 % of control, the T/C (dose: 6.25 mg/kg/injection, schedule: Q04DX003 (ip), vehicle: saline sonified) is reported as 100 % of control and the T/C (dose: 12.5 mg/kg/injection, schedule: Q01DX009 (ip), vehicle: saline) is reported as 100 % of control. The T/C (dose: 12.5 mg/kg/injection, schedule: Q04DX003 (ip), vehicle: saline sonified) was 100 % of control, the T/C (dose: 25.0 mg/kg/injection, schedule: Q01DX009 (ip), vehicle: saline) was 110 % of control and the T/C (dose: 25.0 mg/kg/injection, schedule: Q04DX003 (ip), vehicle: saline sonified) was 100 % of control.
In the case of `CCOC1c2cnc(C)n2C=CN1C(C)=O` (centres undefined), the T/C (dose: 50.0 mg/kg/injection, schedule: Q04DX003 (ip), vehicle: water) is reported as 109 % of control, the T/C (dose: 100.0 mg/kg/injection, schedule: Q04DX003 (ip), vehicle: water) is reported as 100 % of control and 104 % of control and the T/C (dose: 200.0 mg/kg/injection, schedule: Q04DX003 (ip), vehicle: water) is reported as 101 % of control and 111 % of control. The T/C (dose: 300.0 mg/kg/injection, schedule: Q04DX003 (ip), vehicle: water) was 110 % of control and the T/C (dose: 400.0 mg/kg/injection, schedule: Q04DX003 (ip), vehicle: water) was 118 % of control.
`C=C1C(=O)OC2C1C(OC(=O)/C(C)=C/C)CC(O)(CCl)C1C(OC(C)=O)C=C(C)C21O` (centres undefined) was tested, and the T/C [1] was 100 % of control, the T/C [2] was 100 % of control and the T/C [3] was 100 % of control. The T/C (dose: 25.0 mg/kg/injection, schedule: Q01DX010 (ip), vehicle: saline) was 116 % of control, the T/C (dose: 50.0 mg/kg/injection, schedule: Q01DX010 (ip), vehicle: saline) was 100 % of control and the T/C (dose: 100.0 mg/kg/injection, schedule: Q01DX010 (ip), vehicle: saline) was 155 % of control.
`COc1cc(C=Nc2ccc(-c3nc(C)sc3C)cc2)ccc1N(CCCl)CCCl` was tested, and the T/C (dose: 16.5 mg/kg/injection, schedule: Q04DX003 (ip), vehicle: Klucel (hydroxypropylcellulose) (HPC)) was 300 % of control, the T/C (dose: 25.0 mg/kg/injection, schedule: Q04DX003 (ip), vehicle: Klucel (hydroxypropylcellulose) (HPC)) was 231 % of control and 300 % of control and the T/C (dose: 37.5 mg/kg/injection, schedule: Q04DX003 (ip), vehicle: Klucel (hydroxypropylcellulose) (HPC)) was 300 % of control.
With `O=[N+]([O-])c1ccccc1CSc1ncnc2nc[nH]c12` the T/C (dose: 100.0 mg/kg/injection, schedule: Q04DX003 (ip), vehicle: saline with Tween-80) was 100 % of control, the T/C (dose: 132.0 mg/kg/injection, schedule: Q01DX009 (ip), vehicle: saline with Tween-80) was 104 % of control and the T/C (dose: 200.0 mg/kg/injection, schedule: Q01DX009 (ip), vehicle: saline with Tween-80) was 100 % of control. For the same compound, the T/C (dose: 200.0 mg/kg/injection, schedule: Q04DX003 (ip), vehicle: saline with Tween-80) was 108 % of control, the T/C (dose: 300.0 mg/kg/injection, schedule: Q01DX009 (ip), vehicle: saline with Tween-80) was 86 % of control and the T/C (dose: 400.0 mg/kg/injection, schedule: Q04DX003 (ip), vehicle: saline with Tween-80) was 116 % of control.
